According to article PMC4863456 (Journal of Chemical Information and Modeling, 2015):

How the values were obtained:
CB1 M6.55A mutation [1] = settings: M6.55 to alanine; cited from earlier work
[2] = system: CB1 K3.28 mutated to alanine; settings: K3.28 to alanine; cited from earlier work
CB1 M6.55A mutation [3] = assay: Published binding data, M6.55A mutation; settings: M6.55 to alanine
[4] = system: CB1 W5.43 mutated to alanine; settings: W5.43 to alanine; cited from earlier work

Cc1c(C(=O)NN2CCCCC2)nn(-c2ccc(Cl)cc2Cl)c1-c1ccc(Cl)cc1 [rimonabant, N-(Piperidin-1-yl)-5-(4-Chlorophenyl)-1-(2,4-Dichlorophenyl)-4-Methyl-1H -Pyrazole-3-Carboxamide]
decrease in binding affinity upon mutation (CB1 M6.55A mutation [1]): 3 fold
decrease in experimental binding affinity upon mutation [2]: 17.2 fold
decrease in binding affinity upon mutation, as energy (CB1 M6.55A mutation [3]): 0.65 kcal/mol
decrease in experimental binding affinity upon mutation [4]: > 1000 fold
